# Test results published in US8664379B2, “Fused heterocyclic compounds as ion channel modulators” (Gilead Sciences, Inc., priority 2008, dated 2014).
# What was measured:
# hERG potassium channel = molecular target: T1, hERG potassium channel (Homo sapiens, UniProt Q12809); assay: hERG screening assay (PatchXpress patch clamp); format: cell-based; settings: hERG expressed in CHO cells, peak current at -50 mV; for hERG Patch Clamp hERG % blk 1 μm: 1 μM test compound; for hERG Patch Clamp hERG % blk 10 μm: 10 μM test compound
# T1 construct: expressed in transfected cells
# Procedure: Compounds were screened to test their activity in blocking the hERG potassium channel. The hERG channel was heterologously expressed in a CHO (Chinese Hamster Ovary) cell line. Cells were maintained with standard tissue culture procedures and stable channel expression was maintained with 500 μg/ml G418 in the culture medium. Cells were harvested for testing on the PatchXpress automated patch clamp with Accumax (Innovative Cell Technologies, San Diego, Calif.) to isolate single cells.
# The following solutions were used for electrophysiological recordings. The external solution contained: 2 mM CaCl2; 2 mM MgCl2; 4 mM KCl; 150 mM NaCl; 10 mM Glucose; 10 mM HEPES (pH 7.4 with 1M NaOH, osmolarity). The internal solution contained: 140 mM KCl, 10 mM MgCl2, 6 mM EGTA, 5 mM HEPES, 5 mM ATP (pH adjusted to 7.25 with KOH).
# hERG channels are activated when the voltage is stepped to +20 mV from the −80 mV holding potential. During a 5 second step at +20 mV, the channels activated and then largely inactivated, so the currents were relatively small. Upon returning to −50 mV from +20 mV, hERG currents transiently became much larger as inactivation was rapidly removed and then the channel closed. The first step to −50 mV for 300 ms was used as a baseline for measuring the peak amplitude during the step to −50 mV after channel activation. The peak current at −50 mV was measured both under control conditions and after addition of compound.
# All compounds were prepared as 10 mM DMSO stocks in glass vials. Stock solutions were mixed by vigorous vortexing and sonication for about 2 minutes at room temperature. For testing, compounds were diluted in glass vials using an intermediate dilution step in pure DMSO and then further diluted to working concentrations in external solution. Dilutions were prepared no longer than 20 minutes before use.
# After achieving the whole-cell configuration, cells were monitored for 90 seconds to assess stability and washed with external solution for 66 seconds. The voltage protocol described above was then applied to the cells every 12 seconds and throughout the whole procedure. Only cells with stable recording parameters and meeting specified health criteria were allowed to enter the compound addition procedure.
# External solution containing 0.1% DMSO (vehicle) was applied to the cells first to establish the control peak current amplitude. After allowing the current to stabilize for 3 to 5 minutes, 1 μM and then 10 μM test compounds were applied. Each compound concentration was added 4 times and cells were kept in test solution until the effect of the compound reached steady state or for a maximum of 12 minutes. After addition of test compound, a positive control (1 μM Cisapride) was added—it must block >95% of the current for the experiment to be considered valid. Washout in the external solution compartment was performed until the recovery of the current reached steady state. Data were analyzed using DataXpress, Clampfit (Molecular Devices, Inc., Sunnyvale) and Origin 7 (Originlab Corp.)
# [1] = molecular target: wild-type human cardiac sodium channel, hNav1.5 (late sodium current) (Homo sapiens, UniProt Q14524); assay: Late INa screening assay (PatchXpress whole cell patch clamp); format: cell-based; settings: HEK293, 10 μM test compound; HEK293 cells expressing hNav1.5; late INa generated with 10 μM Tefluthrin (some experiments 50 nM ATX II); read-out: Late INa % blk (10 μM test cmpd)
# Procedure: The late sodium current (Late INa) and peak sodium current (Peak INa) assays were performed on an automated electrophysiology platform, PatchXpress 7000A (MDS Analytical Technologies, Sunnyvale, Calif.), which uses the whole cell patch clamp technique to measure currents through the cell membrane of up to 16 cells at a time. The assay used an HEK293 (human embryonic kidney) cell line heterologously expressing the wild-type human cardiac sodium channel, hNav1.5, purchased from Millipore (Billerica, Mass.). No beta subunits were coexpressed with the Na channel alpha subunit. Cells were maintained with standard tissue culture procedures and stable channel expression was maintained with 400 μg/ml Geneticin in the culture medium. Cells isolated for use on PatchXpress were incubated for 5 minutes in Versene 1× and then for 2 minutes in 0.0125% Trypsin-EDTA (both at 37° C.) to ensure that 80-90% of the cells are single and not part of a cell cluster. Experiments were carried out at 24-27° C.
# For both the Late INa and Peak INa assays, series resistance compensation was set to 50% and whole-cell compensation was performed automatically. Currents were low-pass filtered at 10 kHz and digitized at 31.25 kHz. Currents through open sodium channels were automatically recorded and stored in the DataXpress2 database (MDS Analytical Technologies, Sunnyvale, Calif.). Analysis was performed using DataXpress2 analysis software and data are compiled in Excel.
# Compound stocks were routinely made in glass vials to 10 mM in dimethyl sulfoxide (DMSO). In some cases, when compounds were not soluble in DMSO, they were made in 100% ethanol. Stocks were sonicated as necessary. The extracellular solution for screening Late INa was composed of: 140 mM NaCl, 4 mM KCl, 1.8 mM CaCl2, 0.75 mM MgCl2, and 5 mM HEPES with pH adjusted to 7.4 using NaOH. The extracellular solution for screening Peak INa was composed of: 20 mM NaCl, 120 mM N-methyl-D glucamine, 4 mM KCl, 1.8 mM CaCl2, 0.75 mM MgCl2, and 5 mM HEPES with pH adjusted to 7.4 using HCl. The intracellular solution used to perfuse the inside of the cells for both the Late INa and Peak INa assays contains: 120 mM CsF, 20 mM CsCl, 5 mM EGTA, 5 mM HEPES and pH adjusted to 7.4 with CsOH. Compounds were diluted in extracellular solution to 10 μM in glass vials and then transferred to glass well plates before robotic addition to the cells. The 0Na extracellular solution used at the end of each experiment for the Late INa and Peak INa assays to measure baseline current contained: 140 mM N-methyl-D-glucamine; 4 mM KCl; 1.8 mM CaCl2; 0.75 mM MgCl2; 5 mM HEPES and pH was adjusted to 7.4 with HCl.
# For the Late INa assay, sodium channels were activated every 10 seconds (0.1 Hz) by depolarizing the cell membrane to −20 mV for 250 milliseconds (ms) from a holding potential of −120 mV. In response to a −20 mV voltage step, typical Nav1.5 sodium currents activated rapidly to a peak negative current and then inactivated nearly completely within 3-4 ms.
# All compounds were tested to determine their activity in blocking the late sodium current. Late INa current is generated by adding 10 μM Tefluthrin (pyrethroid) to the extracellular solution while recording Na currents. For some experiments, 50 nM ATX II (sea anemone toxin), another late INa activator, was used to generate the late component. Both activators generate late components that are large enough that block of the late component by compounds can be measured easily. For the purposes of the screening, late INa is defined as the mean current between 225 ms and 250 ms after stepping to −20 mV to activate Na channels. After establishing the whole cell recording configuration, late INa activators were added to each well 4 times over a 16-17 minute period so that the late component of the Na current reached a stable value. Compounds were then added (typically at 10 μM), in the presence of late INa activator, with 3 additions over the course of 7 or 8 minutes. […]
# T1 sequence (Q12809 whole entry): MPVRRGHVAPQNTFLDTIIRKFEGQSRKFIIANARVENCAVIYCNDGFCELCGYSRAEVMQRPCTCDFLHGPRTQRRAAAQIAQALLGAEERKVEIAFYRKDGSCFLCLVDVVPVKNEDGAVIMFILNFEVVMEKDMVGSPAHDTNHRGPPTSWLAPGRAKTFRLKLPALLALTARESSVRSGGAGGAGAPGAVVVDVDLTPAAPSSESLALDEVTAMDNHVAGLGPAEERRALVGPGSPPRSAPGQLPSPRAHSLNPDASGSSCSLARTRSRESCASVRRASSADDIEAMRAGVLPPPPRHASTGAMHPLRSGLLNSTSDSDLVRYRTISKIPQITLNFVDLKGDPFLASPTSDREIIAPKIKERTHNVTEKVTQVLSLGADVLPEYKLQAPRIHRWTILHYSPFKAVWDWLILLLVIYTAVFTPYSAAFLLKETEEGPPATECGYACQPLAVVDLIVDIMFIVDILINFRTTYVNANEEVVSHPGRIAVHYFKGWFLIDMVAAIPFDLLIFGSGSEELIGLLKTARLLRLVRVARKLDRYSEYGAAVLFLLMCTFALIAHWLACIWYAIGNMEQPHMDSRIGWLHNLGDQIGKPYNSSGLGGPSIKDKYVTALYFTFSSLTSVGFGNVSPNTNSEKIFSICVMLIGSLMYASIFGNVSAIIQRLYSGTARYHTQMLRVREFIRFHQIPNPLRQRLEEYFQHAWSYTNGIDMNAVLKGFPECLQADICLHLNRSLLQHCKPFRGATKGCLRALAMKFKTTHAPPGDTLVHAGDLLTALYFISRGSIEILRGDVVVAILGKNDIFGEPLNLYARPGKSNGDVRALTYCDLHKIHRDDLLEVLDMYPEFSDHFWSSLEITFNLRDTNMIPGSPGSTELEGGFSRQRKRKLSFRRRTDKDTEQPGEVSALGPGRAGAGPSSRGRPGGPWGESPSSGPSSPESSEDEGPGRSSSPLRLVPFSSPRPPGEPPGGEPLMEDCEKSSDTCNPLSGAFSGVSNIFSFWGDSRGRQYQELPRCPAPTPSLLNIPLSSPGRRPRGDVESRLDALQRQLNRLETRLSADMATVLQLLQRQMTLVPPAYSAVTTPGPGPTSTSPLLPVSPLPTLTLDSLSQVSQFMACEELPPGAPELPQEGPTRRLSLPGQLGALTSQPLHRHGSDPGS
# wild-type human cardiac sodium channel, hNav1.5 (late sodium current), sequence (Q14524 whole entry): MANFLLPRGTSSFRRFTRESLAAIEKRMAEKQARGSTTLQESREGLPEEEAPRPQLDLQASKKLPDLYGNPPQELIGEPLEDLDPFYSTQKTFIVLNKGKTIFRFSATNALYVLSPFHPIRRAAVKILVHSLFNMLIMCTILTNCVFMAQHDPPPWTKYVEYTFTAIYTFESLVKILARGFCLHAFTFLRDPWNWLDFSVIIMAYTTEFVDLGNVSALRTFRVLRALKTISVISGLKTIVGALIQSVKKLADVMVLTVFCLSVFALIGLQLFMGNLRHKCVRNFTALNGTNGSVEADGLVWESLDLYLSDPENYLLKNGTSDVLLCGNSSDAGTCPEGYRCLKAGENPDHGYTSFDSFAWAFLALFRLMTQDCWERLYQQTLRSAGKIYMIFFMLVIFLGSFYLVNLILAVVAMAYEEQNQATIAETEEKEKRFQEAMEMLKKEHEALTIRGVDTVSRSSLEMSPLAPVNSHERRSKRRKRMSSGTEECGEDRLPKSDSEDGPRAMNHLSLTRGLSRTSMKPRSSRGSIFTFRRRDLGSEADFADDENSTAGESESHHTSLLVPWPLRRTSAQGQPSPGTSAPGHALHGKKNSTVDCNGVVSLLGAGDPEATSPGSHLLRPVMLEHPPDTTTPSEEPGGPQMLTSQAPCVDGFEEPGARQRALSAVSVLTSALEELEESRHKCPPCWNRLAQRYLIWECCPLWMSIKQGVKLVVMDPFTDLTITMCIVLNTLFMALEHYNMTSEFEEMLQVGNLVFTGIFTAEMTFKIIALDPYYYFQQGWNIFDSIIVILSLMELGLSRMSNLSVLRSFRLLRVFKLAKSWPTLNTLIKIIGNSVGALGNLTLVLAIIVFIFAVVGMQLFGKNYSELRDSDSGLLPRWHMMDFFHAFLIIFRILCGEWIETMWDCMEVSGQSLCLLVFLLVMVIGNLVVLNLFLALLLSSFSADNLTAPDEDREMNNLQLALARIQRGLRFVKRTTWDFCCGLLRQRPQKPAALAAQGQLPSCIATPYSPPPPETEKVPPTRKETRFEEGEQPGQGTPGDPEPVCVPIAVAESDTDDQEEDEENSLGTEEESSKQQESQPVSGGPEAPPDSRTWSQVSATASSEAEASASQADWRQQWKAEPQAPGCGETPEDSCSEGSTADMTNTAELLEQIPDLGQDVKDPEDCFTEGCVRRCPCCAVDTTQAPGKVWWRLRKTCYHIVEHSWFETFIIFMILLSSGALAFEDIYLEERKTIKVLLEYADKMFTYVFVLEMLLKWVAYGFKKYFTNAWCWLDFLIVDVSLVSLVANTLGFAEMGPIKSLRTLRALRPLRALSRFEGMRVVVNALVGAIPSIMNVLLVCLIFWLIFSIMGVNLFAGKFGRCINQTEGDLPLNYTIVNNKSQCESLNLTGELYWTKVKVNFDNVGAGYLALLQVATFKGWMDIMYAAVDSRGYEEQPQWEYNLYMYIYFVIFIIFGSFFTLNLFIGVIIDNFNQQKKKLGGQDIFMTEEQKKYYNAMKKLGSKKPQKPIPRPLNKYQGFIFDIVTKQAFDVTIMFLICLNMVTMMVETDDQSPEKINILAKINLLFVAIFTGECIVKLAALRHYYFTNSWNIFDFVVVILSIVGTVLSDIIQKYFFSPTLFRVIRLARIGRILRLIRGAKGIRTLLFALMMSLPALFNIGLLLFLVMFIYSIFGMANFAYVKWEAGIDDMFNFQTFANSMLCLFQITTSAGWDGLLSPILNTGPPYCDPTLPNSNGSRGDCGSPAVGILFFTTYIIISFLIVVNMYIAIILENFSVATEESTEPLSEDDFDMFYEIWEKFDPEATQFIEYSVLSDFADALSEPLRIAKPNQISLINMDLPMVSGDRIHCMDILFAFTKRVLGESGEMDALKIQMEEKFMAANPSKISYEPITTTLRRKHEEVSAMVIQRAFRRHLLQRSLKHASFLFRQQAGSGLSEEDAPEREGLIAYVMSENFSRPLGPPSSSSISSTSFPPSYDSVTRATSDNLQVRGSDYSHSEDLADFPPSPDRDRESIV
SMILES,hERG Patch Clamp hERG % blk 1 μm (hERG potassium channel) [%],hERG Patch Clamp hERG % blk 10 μm (hERG potassium channel) [%],inhibition at 10 µM [1] [%]
"O=C1CCc2cc(-c3ccc(OC(F)(F)F)cc3)ccc2N1 [Compound 34, 6-[4-(trifluoromethoxy)phenyl]-3,4-dihydroquinolin-2(1H)-one]",13,37,60
"O=C1CCc2cc(-c3ccc(C(F)(F)F)cc3)ccc2N1CCO [Compound 14, 1-(2-hydroxyethyl)-6-[4-(trifluoromethyl)phenyl]-3,4-dihydroquinolin-2(1H)-one]",10,28,29
"O=C(O)CN1C(=O)CCc2cc(-c3cccc(C(F)(F)F)c3)ccc21 [Compound 60, 2-(2-oxo-6-(3-(trifluoromethyl)phenyl)-3,4-dihydroquinolin-1(2H)-yl)acetic acid]",10,10,25
"O=C1CCc2cc(-c3ccccc3)ccc2N1 [Compound 4, 6-phenyl-3,4-dihydroquinolin-2(1H)-one]",10,16,48
"O=C(O)CN1C(=O)CCc2cc(-c3ccc(Oc4ccccc4)cc3)ccc21 [Compound 70, [2-oxo-6-(4-phenoxyphenyl)-3,4-dihydroquinolin-1(2H)-yl]acetic acid]",10,10,17
"COCCN1C(=O)CCc2cc(-c3ccc(F)cc3F)ccc21 [Compound 27, 6-(2,4-difluorophenyl)-1-(2-methoxyethyl)-3,4-dihydroquinolin-2(1H)-one]",12,47,52
"CN1C(=O)CCc2cc(-c3cccc(F)c3)ccc21 [Compound 21, 6-(3-fluorophenyl)-1-methyl-3,4-dihydroquinolin-2(1H)-one]",11,36,65
"CC(C)(C)OC(=O)CN1C(=O)CCc2cc(-c3ccc(C(F)(F)F)cc3)ccc21 [Compound 29, tert-butyl {2-oxo-6-[4-(trifluoromethyl)phenyl]-3,4-dihydroquinolin-1(2H)-yl}acetate]",11,97,69
"O=C1CCc2cc(-c3ccc(F)cc3F)ccc2N1Cc1csc(-c2ccc(Cl)cc2)n1 [Compound 26, 1-{[2-(4-chlorophenyl)-1,3-thiazol-4-yl]methyl}-6-(2,4-difluorophenyl)-3,4-dihydroquinolin-2(1H)-one]",10,10,20
"COCCN1C(=O)CCc2cc(-c3ccc(C(F)(F)F)cc3)ccc21 [Compound 49, 1-(2-methoxyethyl)-6-[4-(trifluoromethyl)phenyl]-3,4-dihydroquinolin-2(1H)-one]",10,42,60
"O=C1CCc2cc(-c3cccc(F)c3)ccc2N1 [Compound 1, 6-(3-fluorophenyl)-3,4-dihydroquinolin-2(1H)-one]",10,19,74
"O=C(O)CN1C(=O)CCc2cc(-c3ccc(C(F)(F)F)cc3)ccc21 [Compound 44, {2-oxo-6-[4-(trifluoromethyl)phenyl]-3,4-dihydroquinolin-1(2H)-yl}acetic acid]",10,10,–
"CC(C)(C)OC(=O)CN1C(=O)CCc2cc(-c3ccc(Cl)cc3)ccc21 [Compound 40, tert-butyl [6-(4-chlorophenyl)-2-oxo-3,4-dihydroquinolin-1(2H)-yl]acetate]",–,–,64
"O=C1CCc2cc(-c3ccc(C(F)(F)F)c(F)c3)ccc2N1 [Compound 19, 6-(3-fluoro-4-(trifluoromethyl)phenyl)-3,4-dihydroquinolin-2(1H)-one]",–,–,31
"O=C(O)CN1C(=O)CCc2cc(-c3cccc(F)c3)ccc21 [Compound 59, [6-(3-fluorophenyl)-2-oxo-3,4-dihydroquinolin-1(2H)-yl]acetic acid]",–,–,10
"O=C1CCc2cc(-c3ccc(F)cc3)ccc2N1 [Compound 3, 6-(4-fluorophenyl)-3,4-dihydroquinolin-2(1H)-one]",–,–,29
"O=C(O)CN1C(=O)CCc2cc(-c3ccc(OC(F)(F)F)cc3)ccc21 [Compound 51, {2-oxo-6-[4-(trifluoromethoxy)phenyl]-3,4-dihydroquinolin-1(2H)-yl}acetic acid]",–,–,14
